Several values for one entry are separate records, joined by “and”; a condition that tells them apart may be missing. Equal entries are not always repeated. After the bases stand the sugars from the 5' end (letter, count) and the backbone: PS all phosphorothioate, else s phosphorothioate and o phosphodiester by linkage. Methylation of C is not given here. e = 2'-O-(2-methoxyethyl) (MOE); k = constrained ethyl (cEt); d = 2'-deoxy (DNA)

The first data set deals with IRF4. The settings on record: ASO, MM.1R, 0.0625 µM.
On to GAGTGAGATGCGGAGG (sugars k3 d10 k3, PS), for which the target mRNA inhibition is 6%.

Still in this data set, the particulars now being: ASO, MM.1R, 0.074 µM.
In the case of “GCAGTGATGTCAGGTT (sugars kkdddddddddkdkdk, PS)”, the target mRNA inhibition turned out to be 15%.

In the case of “GCATTTTATCATCCGA (sugars e1 k2 d9 k2 e2, PS)”, the target mRNA inhibition was 18%.

Still in this data set, the particulars now being: ASO, MM.1R, 0.222 µM.
As for “GCAGTGATGTCAGGTT (sugars kkdddddddddkdkdk, PS)”, the target mRNA inhibition amounted to 32%.

Take “GCATTTTATCATCCGA (sugars e1 k2 d9 k2 e2, PS)”: the target mRNA inhibition came to 34%.

Still in this data set, the particulars now being: ASO, MM.1R, 0.25 µM.
Take GAGTGAGATGCGGAGG (sugars k3 d10 k3, PS): the target mRNA inhibition is 0%.

Still in this data set, the particulars now being: ASO, MM.1R, 0.666 µM.
Take “GCAGTGATGTCAGGTT (sugars kkdddddddddkdkdk, PS)”: the target mRNA inhibition was 58%.

“GCATTTTATCATCCGA (sugars e1 k2 d9 k2 e2, PS)”: the target mRNA inhibition is 57%.

The data set is the same for the next values; noted with them: ASO, MM.1R, 1 µM.
With GATCCTGAGAGTAAAC (sugars k3 d10 k3, PS), the target mRNA inhibition came out at 6%.

Consider “GATGTGATAGCTGAGC (sugars kkdddddddddkdkdk, PS)”, for which the target mRNA inhibition came to 34%.

With “GATTATATACTGGTTG (sugars kkddddddddddkeke, PS)”, the target mRNA inhibition was found to be 45%.

As for GCAGTGATGTCAGGTT (sugars k3 d10 k3, PS), the target mRNA inhibition was found to be 39%.

“GCAGTGATGTCAGGTT (sugars kkdddddddddkdkdk, PS)”: the target mRNA inhibition was 53%.

On to “GCATTTTATCATCCGA (sugars e1 k2 d9 k2 e2, PS)”, for which the target mRNA inhibition turned out to be 61%.

Regarding “GCATTTTATCATCCGA (sugars k2 d9 e3 k2, PS)”, the target mRNA inhibition was 38%.

With “GCATTTTATCATCCGA (sugars kkddddddddddkeke, PS)”, the target mRNA inhibition amounted to 39%.

Consider “GCATTTTATCATCCGA (sugars kkdddddddddekeke, PS)”, for which the target mRNA inhibition stood at 44%.

On to “GCATTTTATCATCCGA (sugars kkdddddddddkdkdk, PS)”, for which the target mRNA inhibition was found to be 16%.

GCCGATCATCAACTTC (sugars k3 d10 k3, PS): the target mRNA inhibition is 26%.

Take GCCTTCAGCGGTTTCC (sugars k3 d10 k3, PS): the target mRNA inhibition is 4%.

Consider GCGAGTTGGCACAATT (sugars k3 d10 k3, PS), for which the target mRNA inhibition was 27% and 37%.

For the sequence GCTAACTTACAGGACT (sugars k3 d10 k3, PS), the target mRNA inhibition was -8%.

For the sequence GCTAGATTCTCCCTGC (sugars k3 d10 k3, PS), the target mRNA inhibition was -13%.

GCTAGCAGGAGCGAGA (sugars k3 d10 k3, PS): the target mRNA inhibition is -5%.

The data set is the same for the next values; noted with them: ASO, MM.1R, 2 µM.
As to “GCAGTGATGTCAGGTT (sugars kkdddddddddkdkdk, PS)”, the target mRNA inhibition was 79%.

For “GCATTTTATCATCCGA (sugars e1 k2 d9 k2 e2, PS)”, the target mRNA inhibition was found to be 83%.

Staying with this data set, now noted: ASO, MM.1R, 4 µM.
Take GAGTGAGATGCGGAGG (sugars k3 d10 k3, PS): the target mRNA inhibition came out at 67%.

Staying with this data set, now noted: ASO, SK-MEL-28, 0.185 µM.
With GCATTTTCCAGAAAAT (sugars k3 d10 k3, PS), the target mRNA inhibition is 13%.

The same data set, now with this note: ASO, SK-MEL-28, 4 µM.
GAGTCCCCGGCTCCTC (sugars k3 d10 k3, PS): the target mRNA inhibition came to 25%.

With GAGTCTTTGAGGCTGC (sugars k3 d10 k3, PS), the target mRNA inhibition was 34%.

As for GATAAAGGCTGAACTG (sugars k3 d10 k3, PS), the target mRNA inhibition is 67%.

On to GATAATATACCCCAAA (sugars k3 d10 k3, PS), for which the target mRNA inhibition turned out to be 33%.

Regarding GATCATCAACTTCTTA (sugars k3 d10 k3, PS), the target mRNA inhibition worked out at 47%.

Regarding GATGTATACATCACTG (sugars k3 d10 k3, PS), the target mRNA inhibition is 70%.

Consider GATTCATTTCCTTCAC (sugars k3 d10 k3, PS), for which the target mRNA inhibition was 49%.

With GCAAAACCCCTCAAGC (sugars k3 d10 k3, PS), the target mRNA inhibition came out at 20%.

As for GCAATTGAAATGGAGC (sugars k3 d10 k3, PS), the target mRNA inhibition worked out at 24%.

Take GCACAAGCATAAAAGG (sugars k3 d10 k3, PS): the target mRNA inhibition was 16%.

Consider GCACAATTCTCTGAGA (sugars k3 d10 k3, PS), for which the target mRNA inhibition came out at 34%.

Consider GCACAGAACACCTGAT (sugars k3 d10 k3, PS), for which the target mRNA inhibition was 56%.

Consider GCACAGACATACCTAC (sugars k3 d10 k3, PS), for which the target mRNA inhibition was found to be 46%.

Take GCACTGCATGAAAGTG (sugars k3 d10 k3, PS): the target mRNA inhibition came out at 40%.

GCACTGGCATCGAGAC (sugars k3 d10 k3, PS): the target mRNA inhibition stood at 57%.

For GCAGAGCAATTTACAT (sugars k3 d10 k3, PS), the target mRNA inhibition amounted to 66%.

Turning to GCAGAGGGACCCACAC (sugars k3 d10 k3, PS), the target mRNA inhibition worked out at 21%.

As to GCAGGTTTCATTTCAT (sugars k3 d10 k3, PS), the target mRNA inhibition was 44%.

Turning to GCATAAAAGGTTCCTG (sugars k3 d10 k3, PS), the target mRNA inhibition came to 26%.

As to GCATAGCATTATCTAC (sugars k3 d10 k3, PS), the target mRNA inhibition was determined as 51%.

As for GCATCTAAGGCAAGCT (sugars k3 d10 k3, PS), the target mRNA inhibition amounted to 34%.

For GCATTTTCCAGAAAAT (sugars k3 d10 k3, PS), the target mRNA inhibition stood at 64%.

Regarding GCCAAGACCAGCTCTT (sugars k3 d10 k3, PS), the target mRNA inhibition is 30%.

As to GCCAAGAGGTGCGAGT (sugars k3 d10 k3, PS), the target mRNA inhibition came out at 35%.

GCCAAGTAATTTTAAG (sugars k3 d10 k3, PS): the target mRNA inhibition was 35%.

In the case of GCCAATTCCACTTTAT (sugars k3 d10 k3, PS), the target mRNA inhibition was found to be 64%.

Regarding GCCACAACTCTCGCCT (sugars k3 d10 k3, PS), the target mRNA inhibition is 25%.

In the case of GCCATTCGAGGTGATT (sugars k3 d10 k3, PS), the target mRNA inhibition turned out to be 56%.

With GCCATTGTCCTCTGGG (sugars k3 d10 k3, PS), the target mRNA inhibition was 25%.

With GCCCACATAATCCAGT (sugars k3 d10 k3, PS), the target mRNA inhibition worked out at 22%.

On to GCCCGGAGGAAGGGCG (sugars k3 d10 k3, PS), for which the target mRNA inhibition is -6%.

Consider GCCGCTGTCGATCTGG (sugars k3 d10 k3, PS), for which the target mRNA inhibition came out at 24%.

For the sequence GCCTTAATGGTGATTT (sugars k3 d10 k3, PS), the target mRNA inhibition turned out to be 26%.

GCGAAGGCTCCTACCC (sugars k3 d10 k3, PS): the target mRNA inhibition is -15%.

For GCGACTAACTCTCCTG (sugars k3 d10 k3, PS), the target mRNA inhibition worked out at 70%.

GCGGACACGCCCGACC (sugars k3 d10 k3, PS): the target mRNA inhibition was 15%.

Consider GCGGAGCTTCCCGTTG (sugars k3 d10 k3, PS), for which the target mRNA inhibition came out at 33%.

As for GCTACATTTCTTATGC (sugars k3 d10 k3, PS), the target mRNA inhibition amounted to 20%.

Consider GCTCAACCAGTTCCTC (sugars k3 d10 k3, PS), for which the target mRNA inhibition worked out at 38%.

GCTCACAGATTAATAG (sugars k3 d10 k3, PS): the target mRNA inhibition came out at 16%.

GCTCACTATTAAACAG (sugars k3 d10 k3, PS): the target mRNA inhibition was -12%.

For GCTCACTGCTCACTAA (sugars k3 d10 k3, PS), the target mRNA inhibition was 33%.

On to GCTCATGCCGAACTCT (sugars k3 d10 k3, PS), for which the target mRNA inhibition was determined as 19%.

On to GCTCATGGACATCTGC (sugars k3 d10 k3, PS), for which the target mRNA inhibition came out at 39%.

In the case of GCTCCTGAGACAGACT (sugars k3 d10 k3, PS), the target mRNA inhibition came out at 56%.

Consider GCTGCTCATTTCACTG (sugars k3 d10 k3, PS), for which the target mRNA inhibition was found to be 41%.

Consider GCTGTGTGTCAAAGAG (sugars k4 d8 k4, PS), for which the target mRNA inhibition is 40%.

For the sequence GCTTATCAATGCCAAG (sugars k3 d10 k3, PS), the target mRNA inhibition came to 40%.

The data set is the same for the next values; noted with them: ASO, SK-MEL-28, 5 µM.
For GCATTTTCCAGAAAAT (sugars k3 d10 k3, PS), the target mRNA inhibition worked out at 74%.

The same data set, now with this note: ASO, SK-MEL-28, 15 µM.
For GCATTTTCCAGAAAAT (sugars k3 d10 k3, PS), the target mRNA inhibition is 89%.

(Values after the OligoGym collection.)
